Measurements published in ChEMBL document CHEMBL1201862, “PubChem BioAssay data set” (2004).
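Where inhibition never reached the appropriate level, the endpoint shown equals the highest concentration tested. Otherwise, values were interpolated linearly from a five-concentration, 48-hour dose response in 96-well plates. GI50 is the concentration that inhibits growth by half.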 The source made the active and inactive calls. Cut-off read from the data, not from the text of the source: active = GI50 up to about 1.1 µM and inactive = higher.

Legend:
Assay in all cases: NCI anticancer screen, dose series, 48 h
[1] = system: CCRF-CEM
[2] = system: EKVX
[3] = system: HOP-62
[4] = system: HOP-92
[5] = system: HT-29
[6] = system: LOX IMVI
[7] = system: M14
[8] = system: NCI-H522
[9] = system: OVCAR-3
[10] = system: OVCAR-5
[11] = system: RPMI-8226
[12] = system: SF-268
[13] = system: SK-OV-3
[14] = system: SW-620
[15] = system: UACC-257
[16] = system: UACC-62
[17] = system: NCI-H226
[18] = system: SN12C

Measured: GI50

Cc1cc(=O)oc2c(C)c(OCCCOc3ccc4c(C)cc(=O)oc4c3C)ccc12
inactive: [1] > 100 µM | [2] > 100 µM | [3] > 100 µM | [4] 65.9 µM | [5] > 100 µM | [6] > 100 µM | [7] > 100 µM | [8] > 100 µM | [9] > 100 µM | [10] > 100 µM | [11] > 100 µM | [12] > 100 µM | [13] > 100 µM | [14] > 100 µM | [15] > 100 µM | [16] > 100 µM

O=C1C2=C(c3ccccc31)C(c1ccccc1Cl)NC(S)=N2 (stereo not drawn)
inactive: [1] 48.2 µM | [2] > 100 µM | [3] > 100 µM | [4] 16.5 µM | [5] 51.9 µM | [7] 51.8 µM | [17] 8.65 µM | [8] 31.8 µM | [9] 38.1 µM | [10] > 100 µM | [11] 37.4 µM | [12] 51.5 µM | [13] > 100 µM | [18] 41.3 µM | [14] 74.5 µM | [15] 51.3 µM | [16] 34.6 µM

Cc1c2c(cc3c(=O)ccn(CCN(C)C)c13)c(=O)ccn2CCN(C)C
inactive: [1] 5.87 µM | [2] 13 µM | [3] 6.62 µM | [4] 6.1 µM | [6] 10.3 µM | [7] 12.5 µM | [17] 14 µM | [8] 2.31 µM | [9] 14.2 µM | [10] 13.5 µM | [12] 6.93 µM | [13] 8.61 µM | [18] 11.2 µM | [14] 3.81 µM | [15] 18.3 µM | [16] 17.2 µM

FC(F)(F)C1(Br)C(c2ccccc2)=C1c1ccccc1
inactive: [1] 4.43 µM | [2] 32.2 µM | [3] 18.5 µM | [4] 16.7 µM | [5] 17.9 µM | [6] 12.9 µM | [7] 17.1 µM | [17] 17.7 µM | [9] 15.7 µM | [10] 20.9 µM | [11] 19.3 µM | [12] 19.3 µM | [13] 45.2 µM | [18] 14 µM | [14] 16.5 µM | [15] 18.5 µM | [16] 15.8 µM

CC1=CC(=O)C(C)(C2=NC(C)(C)CO2)c2ccccc21 (stereo not drawn)
inactive: [1] > 100 µM | [2] > 100 µM | [3] > 100 µM | [4] > 100 µM | [5] > 100 µM | [7] > 100 µM | [17] > 100 µM | [8] > 100 µM | [9] > 100 µM | [11] > 100 µM | [12] > 100 µM | [13] > 100 µM | [18] > 100 µM | [14] > 100 µM | [15] > 100 µM | [16] > 100 µM

N#CCC(=O)N/N=C(\C(=O)Nc1ccc(Cl)c(Cl)c1)C1CN(c2ccccc2)N=C1N (stereo not drawn)
inactive: [1] 54 µM | [2] > 100 µM | [3] > 100 µM | [4] > 100 µM | [5] > 100 µM | [6] > 100 µM | [7] > 100 µM | [17] > 100 µM | [8] > 100 µM | [9] > 100 µM | [10] > 100 µM | [11] > 100 µM | [12] > 100 µM | [13] > 100 µM | [18] > 100 µM | [15] > 100 µM | [16] > 100 µM

CCOC(=O)C(=O)Nc1c(CC)cccc1C(C)C
inactive: [2] > 100 µM | [3] > 100 µM | [4] > 100 µM | [5] > 100 µM | [6] > 100 µM | [7] > 100 µM | [17] > 100 µM | [9] > 100 µM | [10] > 100 µM | [11] > 100 µM | [12] > 100 µM | [13] > 100 µM | [18] > 100 µM | [14] > 100 µM | [15] > 100 µM | [16] > 100 µM

NCc1ccc(-c2ccc(CN)s2)s1
inactive: [1] > 100 µM | [2] > 100 µM | [3] > 100 µM | [4] > 100 µM | [5] > 100 µM | [6] > 100 µM | [7] > 100 µM | [17] 41.1 µM | [8] > 100 µM | [9] 42.3 µM | [10] 56.2 µM | [11] > 100 µM | [13] 83.8 µM | [18] > 100 µM | [14] > 100 µM | [15] 42.4 µM | [16] 14.6 µM

N#Cc1c(N)c(C(=O)O)nn(-c2cccc(C(F)(F)F)c2)c1=O
inactive: [1] > 100 µM | [2] 33.6 µM | [4] 43.4 µM | [5] > 100 µM | [6] > 100 µM | [7] > 100 µM | [8] 39 µM | [9] > 100 µM | [10] > 100 µM | [11] 88.9 µM | [12] > 100 µM | [13] > 100 µM | [18] > 100 µM | [14] > 100 µM | [16] 76.9 µM

Cn1cc(C(=O)C2CCCCC2)ccc1=O
inactive: [1] > 100 µM | [2] > 100 µM | [3] > 100 µM | [4] > 100 µM | [5] > 100 µM | [6] > 100 µM | [7] > 100 µM | [17] > 100 µM | [8] > 100 µM | [9] > 100 µM | [10] > 100 µM | [11] > 100 µM | [12] > 100 µM | [13] > 100 µM | [18] > 100 µM | [14] > 100 µM | [16] > 100 µM

O=C1C2C(C(=O)N1c1ccccc1)C1c3ccccc3C2C2C(=O)N(c3ccccc3)C(=O)C21 (stereo not drawn)
inactive: [1] 4.9 µM | [2] > 100 µM | [4] 6.82 µM | [5] 26.6 µM | [6] 10.5 µM | [7] 2.85 µM | [17] 28.6 µM | [8] 2.46 µM | [9] 20.7 µM | [10] 15.1 µM | [11] 4.39 µM | [12] 5.56 µM | [13] 8.22 µM | [18] 5.48 µM | [14] 6.12 µM | [15] > 100 µM | [16] 6.78 µM

COC(=O)N/N=C(\c1nc2ccc(Cl)cc2nc1O)C(O)c1ccc([N+](=O)[O-])cc1 (stereo not drawn)
inactive: [1] 89.7 µM | [3] > 100 µM | [4] > 100 µM | [5] > 100 µM | [6] > 100 µM | [7] > 100 µM | [17] > 100 µM | [8] > 100 µM | [9] > 100 µM | [10] > 100 µM | [11] > 100 µM | [12] > 100 µM | [13] > 100 µM | [18] > 100 µM | [14] > 100 µM | [15] > 100 µM | [16] > 100 µM
